Results: patent US20060079453A1, “Hla binding peptides and their uses” (priority 2002, published 2006)
Like-named read-outs stand apart in the source and are kept apart here. No end group written: not given here.

Legend:
Assay in all cases: biochemical
Format in all cases: binding
HLA-DR DRB1*0101 (DR1) = HLA-DR DRB1*0101 (DR1) (Homo sapiens, UniProt P01903+P01911, A100R/D57E/F55L/F60I/F76Y/I96L/L162R/M171V/P40L/Q125E/R42F/V115G/Y59C)
HLA-DR DRB1*0401 (DR4) = HLA-DR DRB1*0401 (DR4) (Homo sapiens, UniProt P01903+P01911, A100K/A169T/F76Y/I96L/K127E/L162R/M171V/N62H/P40V/Q125Y/R42H/S133A/S149N/S66Y/V115G/V209L/W38E)
HLA-DR DRB1*0405 (DR4) = HLA-DR DRB1*0405 (DR4) (Homo sapiens, UniProt P01903+P01911, A100R/A169T/D86S/F76Y/I96L/K127E/L162R/M171V/N62H/P40V/Q125Y/R42H/S133A/S149N/S66Y/V115G/V209L/W38E)
HLA-DR DRB1*0701 (DR7) = HLA-DR DRB1*0701 (DR7) (Homo sapiens, UniProt P01903+P01911, A100R/A102G/A103Q/D57E/D86V/E43K/F76Y/K127E/L162R/M171V/P40G/Q125H/Q99D/R33Q/R42Y/R54Q/S133A/S66F/T210M/V115G/Y107V/Y59L/Y89S)
HLA-DR DRB1*0901 (DR9) = HLA-DR DRB1*0901 (DR9) (Homo sapiens, UniProt P01903+P01911, A100R/A103E/D57H/D86V/F55Y/F60I/F76Y/I96F/K127E/L162R/M171V/P40D/Q125H/Q99R/R33Q/R42F/S133A/S66N/T210M/V115G/W38K/Y107V/Y59G/Y89S)
HLA-DR DRB1*1302 (DR13) = HLA-DR DRB1*1302 (DR13) (Homo sapiens, UniProt P01903+P01911, A100E/A169T/K41T/L162R/M171V/P40S/Q125H/Q178H/Q39Y/Q99D/R42S/S66N/T262R/V115G/W38E/Y61H); conditions: DRBI *1302
Chain of HLA-DR DRB1*1302 (DR13) (P01903 26-254 limits assumed, other chains not shown): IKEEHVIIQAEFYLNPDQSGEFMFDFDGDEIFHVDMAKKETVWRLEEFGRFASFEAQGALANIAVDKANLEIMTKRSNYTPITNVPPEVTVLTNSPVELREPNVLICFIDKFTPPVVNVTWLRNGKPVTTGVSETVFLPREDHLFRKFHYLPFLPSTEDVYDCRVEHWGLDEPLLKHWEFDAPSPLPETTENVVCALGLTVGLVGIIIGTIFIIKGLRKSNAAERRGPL

HLA-DR DRB1*1501 (DR15) = HLA-DR DRB1*1501 (DR15) (Homo sapiens, UniProt P01903+P01911); conditions: DRBI *1501
HLA-DR DRB4*0101 (DR53) = HLA-DR DRB4*0101 (DR53) (Homo sapiens, UniProt P01903+P13762, G164S); conditions: DRB4 *0101
HLA-DR DRB5*0101 (DR51) = HLA-DR DRB5*0101 (DR51) (Homo sapiens, UniProt P01903+Q30154); conditions: DRB5 *0101
HLA-DR DRB1*0301 (DR3) = HLA-DR DRB1*0301 (DR3) (Homo sapiens, UniProt P01903+P01911, A100K/A102G/A103R/A169T/F55Y/I96L/K41T/L162R/M171V/P40S/Q125H/Q178H/Q39Y/R42S/S66N/T106N/T262R/W38E/Y61H)
Chain of HLA-DR DRB1*0301 (DR3) (P01903 26-254 limits assumed, other chains not shown): as above

HLA-DR DRB1*1101 (DR11) = HLA-DR DRB1*1101 (DR11) (Homo sapiens, UniProt P01903+P01911, A100R/A169T/A87E/I96F/K41T/L162R/M171V/P40S/Q125H/Q178H/Q39Y/Q99D/R42S/S66Y/T262R/V115G/W38E); conditions: DRB1 *1101
Chain of HLA-DR DRB1*1101 (DR11) (P01903 26-254 limits assumed, other chains not shown): as above

Compound	IC50 (HLA-DR DRB1*0101 (DR1); DRB1 *0101)	IC50 (HLA-DR DRB1*0401 (DR4); DRB1 *0401)	IC50 (HLA-DR DRB1*0405 (DR4); DRB1 *0405)	IC50 (HLA-DR DRB1*0701 (DR7); DRB1 *0701)	IC50 (HLA-DR DRB1*0901 (DR9); DRB1 *0901)	IC50 (HLA-DR DRB1*1302 (DR13))	IC50 (HLA-DR DRB1*1501 (DR15))	IC50 (HLA-DR DRB4*0101 (DR53))	IC50 (HLA-DR DRB5*0101 (DR51))	IC50 (HLA-DR DRB1*0101 (DR1); read-out: DRB1 *0101)	IC50 (HLA-DR DRB1*0301 (DR3); read-out: DRB1 *0301)	IC50 (HLA-DR DRB1*0401 (DR4); read-out: DRB1 *0401)	IC50 (HLA-DR DRB1*0405 (DR4); read-out: DRB1 *0405)	IC50 (HLA-DR DRB1*0901 (DR9); read-out: DRB1 *0901)	IC50 (HLA-DR DRB1*0701 (DR7); read-out: DRB1 *0701)	IC50 (HLA-DR DRB1*0301 (DR3))	IC50 (HLA-DR DRB1*1101 (DR11))
RTAMFQDPQERPRKL	9370 nM	28200 nM	7980 nM	32900 nM	> 25300 nM	17100 nM	73200 nM	20500 nM	7470 nM	–	–	–	–	–	–	–	–
VYDFVFADLRIVYRD	–	–	–	–	–	–	–	–	–	98 nM	2.2 nM	475 nM	717 nM	198 nM	–	–	–
MLDLQPETTDLYCYE	–	–	–	–	–	–	–	–	–	–	720 nM	1910 nM	4250 nM	> 32200 nM	> 72300 nM	–	–
RLFDNAMLRAHRL	–	–	–	–	–	–	–	–	–	2.3 nM	27 nM	6290 nM	4250 nM	> 59500 nM	3300 nM	–	–
DLRVVQQLLMGALTV	8.4 nM	–	84 nM	508 nM	1840 nM	57 nM	–	9.5 nM	–	–	–	–	–	–	–	26000 nM	–
LSFFLKEKGGLDGL	–	–	–	–	–	–	–	–	–	–	> 341000 nM	–	983 nM	3500 nM	20000 nM	–	–
DFAFTDLTIVYRDDT	–	80 nM	40 nM	–	1440 nM	5010 nM	3650 nM	21600 nM	675 nM	–	–	–	–	–	–	23 nM	–
DFAFADLTVVYREGN	3290 nM	141 nM	60 nM	1730 nM	322 nM	9630 nM	4920 nM	18000 nM	39800 nM	–	–	–	–	–	–	–	> 18000 nM
QDYVLDLQPEATDLH	13400 nM	253 nM	5590 nM	> 18600 nM	> 39900 nM	> 11500 nM	> 62800 nM	1850 nM	> 22900 nM	–	–	–	–	–	–	–	> 11900 nM
REVYKFLFTDLRIVY	8.7 nM	–	52 nM	54 nM	204 nM	80 nM	258 nM	203 nM	155 nM	–	–	–	–	–	–	–	2260 nM
FVVYRDSIPHAACHK	587 nM	10 nM	704 nM	–	2120 nM	1850 nM	349 nM	18100 nM	2340 nM	–	–	–	–	–	–	200 nM	–
CC[C@H](C)[C@H](N)C(=O)N[C@@H](CCCNC(=N)N)C(=O)N[C@H](C(=O)N[C@@H](CC(C)C)C(=O)N[C@@H](CCC(=O)O)C(=O)N[C@@H](CC(=O)O)C(=O)N[C@@H](CC(C)C)C(=O)N[C@@H](CC(C)C)C(=O)N[C@@H](CCSC)C(=O)NCC(=O)N[C@H](C(=O)N[C@@H](CC(C)C)C(=O)NCC(=O)N[C@H](C(=O)N[C@H](C(=O)O)C(C)C)[C@@H](C)CC)[C@@H](C)O)[C@@H](C)O	16 nM	95 nM	61 nM	895 nM	1720 nM	789 nM	–	23 nM	–	–	–	–	–	–	–	5210 nM	–
CSCC[C@H](NC(=O)[C@H](Cc1ccc(O)cc1)NC(=O)[C@H](CCC(=O)O)NC(=O)[C@@H](N)Cc1c[nH]cn1)C(=O)N[C@@H](CC(C)C)C(=O)N[C@@H](CC(=O)O)C(=O)N[C@@H](CC(C)C)C(=O)N[C@@H](CCC(N)=O)C(=O)N1CCC[C@H]1C(=O)N[C@@H](CCC(=O)O)C(=O)N[C@H](C(=O)N[C@H](C(=O)N[C@@H](CC(=O)O)C(=O)N[C@@H](CC(C)C)C(=O)N[C@@H](Cc1ccc(O)cc1)C(=O)O)[C@@H](C)O)[C@@H](C)O	–	–	2290 nM	> 18600 nM	21300 nM	13000 nM	30900 nM	2100 nM	> 22900 nM	–	–	–	–	–	–	–	> 56200 nM
CKFVVQLDIQSTKED [CKFVVQLDIQSTKED]	–	–	374 nM	4550 nM	19300 nM	> 11400 nM	22900 nM	301 nM	> 31400 nM	–	–	–	–	–	–	–	> 31600 nM
LRVVQQLLMGALTVT	5.7 nM	–	85 nM	82 nM	204 nM	8.9 nM	56 nM	7.7 nM	–	–	–	–	–	–	–	21700 nM	–
YYDYSVYGATLESIT	1010 nM	–	230 nM	–	1400 nM	–	1110 nM	32400 nM	> 51000 nM	–	–	–	–	–	–	–	9120 nM
TIVYRDDTPHGVCTK	3800 nM	–	> 9750 nM	> 35600 nM	> 39100 nM	6280 nM	5450 nM	> 21500 nM	> 62300 nM	–	–	–	–	–	–	–	> 18000 nM
KDYILDLQPETTDLH	–	1020 nM	2770 nM	> 72300 nM	> 49900 nM	23700 nM	> 37400 nM	490 nM	> 55100 nM	–	–	–	–	–	–	–	> 17400 nM
CC[C@H](C)[C@H](NC(=O)[C@H](CCC(=O)O)NC(=O)[C@H](CC(C)C)NC(=O)[C@H](C)NC(=O)[C@H](CO)NC(=O)[C@H](CO)NC(=O)[C@H](CC(C)C)NC(=O)[C@H](CCC(=O)O)NC(=O)[C@H](Cc1c[nH]cn1)NC(=O)[C@H](CC(C)C)NC(=O)[C@H](CCCCN)NC(=O)[C@H](CCCNC(=N)N)NC(=O)[C@@H]1CCCN1)C(=O)N1CCC[C@H]1C(=O)N[C@@H](Cc1ccc(O)cc1)C(=O)O	–	5280 nM	80 nM	–	213 nM	51 nM	1120 nM	–	> 10700 nM	–	–	–	–	–	–	16100 nM	–
DLFVVYRDSIPHAAC	–	82 nM	3590 nM	5210 nM	2370 nM	11200 nM	2830 nM	2680 nM	10700 nM	–	–	–	–	–	–	–	–
VPTLQDVVLELTPQT	16100 nM	214 nM	5410 nM	> 35400 nM	> 30600 nM	15000 nM	–	1000 nM	> 31400 nM	–	–	–	–	–	–	–	> 31600 nM
NYSVYGNTLEQTVKK	14100 nM	1930 nM	822 nM	> 14600 nM	47500 nM	8610 nM	15600 nM	> 25100 nM	–	–	–	–	–	–	–	–	> 56700 nM
TEVLDFAFTDLTIVY	2070 nM	–	871 nM	–	349 nM	> 13100 nM	561 nM	–	> 62300 nM	–	–	–	–	–	–	–	> 18000 nM
CSNLSTCVLQKLSQE	–	–	–	–	–	–	–	–	–	–	> 205000 nM	–	5340 nM	7220 nM	31800 nM	–	–
LTIVYRDDTPHGVCT	–	–	–	–	–	–	–	–	–	> 15400 nM	187 nM	23 nM	> 8590 nM	> 25300 nM	> 72300 nM	–	–
RETLQEIVLHLEPQN	1590 nM	2940 nM	829 nM	25900 nM	19100 nM	11400 nM	16200 nM	95 nM	> 55100 nM	–	–	–	–	–	–	–	7900 nM
IDGVNHQHLPARRAE	–	34300 nM	> 17000 nM	> 18600 nM	> 39900 nM	> 11500 nM	> 36800 nM	–	12600 nM	–	–	–	–	–	–	–	> 56200 nM
QDVVLELTPQTEIDL	–	83 nM	53 nM	–	1680 nM	–	> 33100 nM	1720 nM	> 31400 nM	–	–	–	–	–	–	–	> 31600 nM
